≈ marks a conversion by molar mass, not a printed value. Calls of active or inactive are those of the source. The rule behind the calls is not given here.
Tests used:
Streptococcus mutans [1] = assay: Antibacterial activity against Streptococcus mutans ATCC […] after 2 days by broth dilution method; type: functional; details: 48 h
Proteus vulgaris [2] = assay: Antibacterial activity against Proteus vulgaris ATCC 13315 after 2 days by broth dilution method; type: functional; details: ATCC 13315, 48 h
Staphylococcus aureus [3] = assay: Antibacterial activity against Staphylococcus aureus ATCC 12598 after 2 days by broth dilution method; type: functional; details: ATCC 12598, 48 h
[4] = tested on: Trichophyton mentagrophytes; assay: Antifungal activity against Trichophyton mentagrophytes ATCC 18748 after 5 days by broth dilution method; type: functional; details: ATCC 18748, 120 h
Pseudomonas aeruginosa [5] = assay: Antibacterial activity against Pseudomonas aeruginosa ATCC 10145 after 2 days by broth dilution method; type: functional; details: ATCC 10145, 48 h
Malassezia [6] = assay: Antifungal activity against Pityrosporum ovale ATCC 14521 after 3 days by broth dilution method; type: functional; details: ATCC 14521, 72 h
Klebsiella aerogenes [7] = assay: Antibacterial activity against Enterobacter aerogenes ATCC 13048 after 2 days by broth dilution method; type: functional; details: ATCC 13048, 48 h
[8] = tested on: Corynebacterium ammoniagenes; assay: Antibacterial activity against Brevibacterium ammoniagenes ATCC 6872 after 2 days by broth dilution method; type: functional; details: ATCC 6872, 48 h
Bacillus subtilis [9] = assay: Antibacterial activity against Bacillus subtilis ATCC 9372 after 2 days by broth dilution method; type: functional; details: ATCC 9372, 48 h
Escherichia coli [10] = assay: Antibacterial activity against Escherichia coli ATCC 9637 after 2 days by broth dilution method; type: functional; details: ATCC 9637, 48 h
Saccharomyces cerevisiae [11] = assay: Antifungal activity against Saccharomyces cerevisiae ATCC 7754 after 2 days by broth dilution method; type: functional; details: ATCC 7754, 48 h
Cyberlindnera jadinii [12] = assay: Antifungal activity against Candida utilis ATCC 9226 after 2 days by broth dilution method; type: functional; details: Williopsis jadinii, ATCC 9226, 48 h
Penicillium chrysogenum [13] = assay: Antifungal activity against Penicillium chrysogenum ATCC 10106 after 5 days by broth dilution method; type: functional; details: ATCC 10106, 120 h
Cutibacterium acnes [14] = assay: Antibacterial activity against Propionibacterium acnes ATCC 11827 after 2 days by broth dilution method; type: functional; details: ATCC 11827, 48 h
Klebsiella aerogenes [15] = assay: Ratio of MBC to MIC for Enterobacter aerogenes ATCC 13048; type: functional
Cutibacterium acnes [16] = assay: Ratio of MBC to MIC for Propionibacterium acnes ATCC 11827; type: functional
Streptococcus mutans [17] = assay: Ratio of MBC to MIC for Streptococcus mutans ATCC […]; type: functional
Proteus vulgaris [18] = assay: Ratio of MBC to MIC for Proteus vulgaris ATCC 13315; type: functional
[19] = tested on: Corynebacterium ammoniagenes; assay: Ratio of MBC to MIC for Brevibacterium ammoniagenes ATCC 6872; type: functional
Pseudomonas aeruginosa [20] = assay: Ratio of MBC to MIC for Pseudomonas aeruginosa ATCC 10145; type: functional
Staphylococcus aureus [21] = assay: Ratio of MBC to MIC for Staphylococcus aureus ATCC 12598; type: functional
Escherichia coli [22] = assay: Ratio of MBC to MIC for Escherichia coli ATCC 9637; type: functional
Staphylococcus aureus [23] = assay: Antibacterial activity against Staphylococcus aureus ATCC 12598 up to 800 ug/ml after 2 days by broth dilution method; type: functional, organism-based
Malassezia [24] = assay: Antifungal activity against Pityrosporum ovale ATCC 14521 up to 800 ug/ml after 3 days by broth dilution method; type: functional, organism-based
Penicillium chrysogenum [25] = assay: Antifungal activity against Penicillium chrysogenum ATCC 10106 up to 800 ug/ml after 5 days by broth dilution method; type: functional, organism-based
Bacillus subtilis [26] = assay: Antibacterial activity against Bacillus subtilis ATCC 9372 up to 800 ug/ml after 2 days by broth dilution method; type: functional, organism-based
Streptococcus mutans [27] = assay: Antibacterial activity against Streptococcus mutans ATCC […] up to 800 ug/ml after 2 days by broth dilution method; type: functional, organism-based
Escherichia coli [28] = assay: Antibacterial activity against Escherichia coli ATCC 9637 up to 800 ug/ml after 2 days by broth dilution method; type: functional, organism-based
Klebsiella aerogenes [29] = assay: Antibacterial activity against Enterobacter aerogenes ATCC 13048 up to 800 ug/ml after 2 days by broth dilution method; type: functional, organism-based
[30] = tested on: Corynebacterium ammoniagenes; assay: Antibacterial activity against Brevibacterium ammoniagenes ATCC 6872 up to 800 ug/ml after 2 days by broth dilution method; type: functional, organism-based
Pseudomonas aeruginosa [31] = assay: Antibacterial activity against Pseudomonas aeruginosa ATCC 10145 up to 800 ug/ml after 2 days by broth dilution method; type: functional, organism-based
Proteus vulgaris [32] = assay: Antibacterial activity against Proteus vulgaris ATCC 13315 up to 800 ug/ml after 2 days by broth dilution method; type: functional, organism-based
Cyberlindnera jadinii [33] = assay: Antifungal activity against Candida utilis ATCC 9226 up to 800 ug/ml after 2 days by broth dilution method; type: functional, organism-based
Saccharomyces cerevisiae [34] = assay: Antifungal activity against Saccharomyces cerevisiae ATCC 7754 up to 800 ug/ml after 2 days by broth dilution method; type: functional, organism-based
Cutibacterium acnes [35] = assay: Antibacterial activity against Propionibacterium acnes ATCC 11827 up to 800 ug/ml after 2 days by broth dilution method; type: functional, organism-based
[36] = tested on: Trichophyton mentagrophytes; assay: Antifungal activity against Trichophyton mentagrophytes ATCC 18748 up to 800 ug/ml after 5 days by broth dilution method; type: functional, organism-based

SMILES | MIC (Streptococcus mutans [1]) [µg/mL] | MIC (Proteus vulgaris [2]) [µg/mL] | MIC (Staphylococcus aureus [3]) [µg/mL] | MIC [4] [µg/mL] | MIC (Pseudomonas aeruginosa [5]) [µg/mL] | MIC (Malassezia [6]) [µg/mL] | MIC (Klebsiella aerogenes [7]) [µg/mL] | MIC [8] [µg/mL] | MIC (Bacillus subtilis [9]) [µg/mL] | MIC (Escherichia coli [10]) [µg/mL] | MIC (Saccharomyces cerevisiae [11]) [µg/mL] | MIC (Cyberlindnera jadinii [12]) [µg/mL] | MIC (Penicillium chrysogenum [13]) [µg/mL] | MIC (Cutibacterium acnes [14]) [µg/mL] | also measured
CCCC/C=C/C=O | 400 (≈ 3570 µM) | 100 (≈ 891 µM) | 400 (≈ 3570 µM) | 25 (≈ 223 µM) | 800 (≈ 7130 µM) | 50 (≈ 446 µM) | 400 (≈ 3570 µM) | 400 (≈ 3570 µM) | 200 (≈ 1780 µM) | 400 (≈ 3570 µM) | 100 (≈ 891 µM) | 100 (≈ 891 µM) | 50 (≈ 446 µM) | 100 (≈ 891 µM) | Ratio (Klebsiella aerogenes [15]): <=2; Ratio (Cutibacterium acnes [16]): <=2; Ratio (Streptococcus mutans [17]): <=2; Ratio (Proteus vulgaris [18]): <=2; Ratio [19]: <=2; Ratio (Pseudomonas aeruginosa [20]): <=2; Ratio (Staphylococcus aureus [21]): <=2; Ratio (Escherichia coli [22]): <=2
CCCCCCCCCCCCCCCC(=O)O |  |  |  |  |  |  |  |  |  |  |  |  |  |  | Activity (Staphylococcus aureus [23]): inactive; Activity (Malassezia [24]): inactive; Activity (Penicillium chrysogenum [25]): inactive; Activity (Bacillus subtilis [26]): inactive; Activity (Streptococcus mutans [27]): inactive; Activity (Escherichia coli [28]): inactive; Activity (Klebsiella aerogenes [29]): inactive; Activity [30]: inactive; Activity (Pseudomonas aeruginosa [31]): inactive; Activity (Proteus vulgaris [32]): inactive; Activity (Cyberlindnera jadinii [33]): inactive; Activity (Saccharomyces cerevisiae [34]): inactive; Activity (Cutibacterium acnes [35]): inactive; Activity [36]: inactive

Continued, in another order:

MIC (Streptococcus mutans [1]) [µg/mL] | MIC (Proteus vulgaris [2]) [µg/mL] | MIC (Staphylococcus aureus [3]) [µg/mL] | MIC [4] [µg/mL] | MIC (Pseudomonas aeruginosa [5]) [µg/mL] | MIC (Malassezia [6]) [µg/mL] | MIC (Klebsiella aerogenes [7]) [µg/mL] | MIC [8] [µg/mL] | MIC (Bacillus subtilis [9]) [µg/mL] | MIC (Escherichia coli [10]) [µg/mL] | MIC (Saccharomyces cerevisiae [11]) [µg/mL] | MIC (Cyberlindnera jadinii [12]) [µg/mL] | MIC (Penicillium chrysogenum [13]) [µg/mL] | MIC (Cutibacterium acnes [14]) [µg/mL] | SMILES | also measured
100 (≈ 657 µM) | 25 (≈ 164 µM) | 50 (≈ 328 µM) | 1.56 (≈ 10.2 µM) | > 800 | 12.5 (≈ 82.1 µM) | > 800 | 100 (≈ 657 µM) | 50 (≈ 328 µM) | > 800 | 25 (≈ 164 µM) | 25 (≈ 164 µM) | 12.5 (≈ 82.1 µM) | 12.5 (≈ 82.1 µM) | CCCCC/C=C/C=C/C=O | 
400 (≈ 3170 µM) | 50 (≈ 396 µM) | 200 (≈ 1580 µM) | 25 (≈ 198 µM) | > 800 | 25 (≈ 198 µM) | 200 (≈ 1580 µM) | 200 (≈ 1580 µM) | 100 (≈ 792 µM) | 200 (≈ 1580 µM) | 50 (≈ 396 µM) | 50 (≈ 396 µM) | 50 (≈ 396 µM) | 50 (≈ 396 µM) | CCCCC/C=C/C=O | 
50 (≈ 297 µM) | 12.5 (≈ 74.3 µM) | 12.5 (≈ 74.3 µM) | 1.56 (≈ 9.27 µM) | > 800 | 25 (≈ 149 µM) | > 800 | 25 (≈ 149 µM) | 25 (≈ 149 µM) | > 800 | 25 (≈ 149 µM) | 12.5 (≈ 74.3 µM) | 6.25 (≈ 37.1 µM) | 6.25 (≈ 37.1 µM) | CCCCCCCC/C=C/C=O | 

Source: ChEMBL document CHEMBL1150081, “Antimicrobial Agents from Tanacetum balsamita” (1995)
